This is an account of results in patent US20240336611A1 (Insilico Medicine IP Limited, priority 2021, published 2024).

Series [1] deals with T1, TNIK kinase [amino acid sequence (1-367), Invitrogen] (Homo sapiens, UniProt Q9UKE5).
T1 construct: purchased Invitrogen
The series can be described thus: TNIK kinase inhibition assay (Z-lyte FRET-peptide). Format: biochemical. Conditions: 0.625 nM TNIK kinase, 2 μM Ser/Thr 7 peptide, 64 μM ATP, one hour at room temperature.

A short description of series [2]: Metabolic stability in human liver microsomes. Particulars: LM Clint (intrinsic clearance); 1 μM test compound, 0.5 mg protein/mL microsome, 37° C., up to 60 min. Format: in vitro ADME. How it is done:
2.1. Test Compound and Control Working Solution Preparation: Working solution: 5 µL of compound and control stock solution (10 mM in dimethyl sulfoxide (DMSO)) were diluted with 495 μL of acetonitrile (ACN) (intermediate solution concentration: 100 μM, 99% ACN).
2.2.1. […] 2.2.2. Preparation Procedure: The appropriate amount of NADPH powder were weighed and diluted into a 10 mM MgCl2 solution (working solution concentration: 10 unit/mL; final concentration in reaction system: 1 unit/mL).
2.3.2. Preparation Procedure: The appropriate concentrations of microsome working solutions were prepared in 100 mM potassium phosphate buffer. 2.4. Stop Solution Preparation: Cold (4° C.) acetonitrile (ACN) containing 200 ng/mL tolbutamide and 200 ng/mL labetalol as internal standards (IS) were used as the stop solution.
2.5.1. Pre-warm empty ‘Incubation’ plates T60 and NCF60 for 10 min minutes. 2.5.2. Liver microsomes were diluted to 0.56 mg/mL in 100 mM phosphate buffer. 2.5.3. 445 uL microsome working solutions (0.56 mg/mL) were transferred into pre-warmed ‘Incubation’ plates T60 and NCF60. Then ‘Incubation’ plates T60 and NCF60 were pre-incubated for 10 min at 37° C. with constant shaking. 54 μL liver microsomes were transferred to blank plate, then 6 μL NAPDH cofactor were added to the blank plate, and then 180 μL quenching solution can be added to blank plate. 2.5.4 5 μL compound working solution (100 μM) were added into ‘incubation’ plates (T60 and NCF60) containing microsomes and mix 3 times thoroughly. 2.5.5. For the NCF60 plate, 50 uL of buffer were added and were mixed 3 times thoroughly. Start timing; plate was incubated at 37° C. for 60 min while shaking. 2.5.6. In ‘Quenching’ plate TO, 180 μL quenching solution were added and 6 μL NAPDH cofactor were added. Ensured the plate was chilled to prevent evaporation. 2.5.7. For the T60 plate, were mixed 3 times thoroughly, and immediately removed 54 μL mixture for the 0-min time point to ‘Quenching’ plate. Then 44 μL NAPDH cofactor were added to incubation plate (T60). Start timing; plate were incubated at 37° C. for 60 min while shaking.
2.5.8. At 5, 10, 20, 30, and 60 min, 180 μL quenching solution were added to ‘Quenching’ plates, mix once, and were serially transferred 60 μL sample from T60 plate per time point to ‘Quenching’ plates.
2.5.9. For NCF60: were mixed once, and 60 μL sample were transferred from the NCF60 incubation to ‘Quenching’ plate containing quenching solution at the 60-min time point.
2.5.10. All sampling plates were shaken for 10 min, then centrifuged at 4000 rpm for 20 minutes at 4° C. 2.5.11. 80 μL supernatant were transferred into 240 μL HPLC water, and were mixed by plate shaker for 10 min. 2.5.12. Each bioanalysis plate were sealed and shaken for 10 minutes prior to LC-MS/MS analysis.
3.1. The equation of first order kinetics were used to calculate T1/2 and Intrinsic clearance (CLint mic) in (μL/min/mg).
Equation of first order kinetic.

T1 sequence (Q9UKE5 1-367): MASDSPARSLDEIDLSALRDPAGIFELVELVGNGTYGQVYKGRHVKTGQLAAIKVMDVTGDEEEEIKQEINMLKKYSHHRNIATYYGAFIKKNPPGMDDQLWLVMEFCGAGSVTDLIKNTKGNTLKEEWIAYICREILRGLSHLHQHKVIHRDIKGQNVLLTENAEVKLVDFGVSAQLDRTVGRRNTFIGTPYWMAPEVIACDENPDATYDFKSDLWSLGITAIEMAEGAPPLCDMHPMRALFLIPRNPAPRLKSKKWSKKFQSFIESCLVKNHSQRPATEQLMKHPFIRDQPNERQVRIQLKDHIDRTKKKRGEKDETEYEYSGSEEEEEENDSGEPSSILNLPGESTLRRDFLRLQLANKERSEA

As to `CC(C)n1cnc(-c2ccc(F)cc2)c1-c1nc(C(=O)Nc2ccc(C3COC3)cc2F)c[nH]1` [Compound 55, N-(2-fluoro-4-(oxetan-3-yl)phenyl)-5′-(4-fluorophenyl)-3′-isopropyl-1H,3′H-[2,4′-biimidazole]-4-carboxamide], the IC50 in series [1] fell in the range of 1 to 12 nM. Further, in series [2], the “Human Liver Microsome (μM/min/mg)” value is on record as “++ (10-100 μM/min/mg as ++)”.
In the case of `CC(C)n1cnc(-c2ccc(F)cc2)c1-c1nc(C(=O)Nc2ccc3c(c2)CN(C)CC3)cs1` [Compound 56, 2-(4-(4-fluorophenyl)-1-isopropyl-1H-imidazol-5-yl)-N-(2-methyl-1,2,3,4-tetrahydroisoquinolin-7-yl)thiazole-4-carboxamide], in series [1], the IC50 lay within 1 to 12 nM. Besides, in series [2], the “Human Liver Microsome (μM/min/mg)” value is given as “+ (>100 μM/min/mg as +)”.
For `CC(C)n1cnc(-c2ccc(F)cc2)c1-c1nc(C(=O)Nc2ccc(C3COC3)cn2)cs1` [Compound 57, 2-(4-(4-fluorophenyl)-1-isopropyl-1H-imidazol-5-yl)-N-(5-(oxetan-3-yl)pyridin-2-yl)thiazole-4-carboxamide], in series [1], the IC50 was in the range of 1 to 12 nM. For the same molecule, the “Human Liver Microsome (μM/min/mg)” value in series [2] was “+ (>100 μM/min/mg as +)”.
For the molecule `CC(C)n1cnc(-c2ccc(F)cc2)c1-c1nc(C(=O)Nc2ccc(C3CN(C)C3)cc2F)cs1` [Compound 58, N-(2-fluoro-4-(1-methylazetidin-3-yl)phenyl)-2-(4-(4-fluorophenyl)-1-isopropyl-1H-imidazol-5-yl)thiazole-4-carboxamide], the IC50 in series [1] lay in the range of 1 to 12 nM. Further, the “Human Liver Microsome (μM/min/mg)” value in series [2] was “++ (10-100 μM/min/mg as ++)”.
`CC(C)n1cnc(-c2ccc(F)cc2)c1-c1nc(C(=O)Nc2ccc(C3COC3)cc2F)cs1` [Compound 59]: in series [1], the IC50 fell in the range of 1 to 12 nM. Besides, in series [2], the “Human Liver Microsome (μM/min/mg)” value is recorded as “+ (>100 μM/min/mg as +)”.
The molecule `CC(C)n1cnc(-c2ccc(F)cc2)c1-c1nc(C(=O)Nc2ccc(C3=C[C@H]4CC[C@@H](C3)N4C)cn2)cs1` [Compound 61, 2-(4-(4-fluorophenyl)-1-isopropyl-1H-imidazol-5-yl)-N-(5-((1R,5S)-8-methyl-8-azabicyclo[3.2.1]oct-2-en-3-yl)pyridin-2-yl)thiazole-4-carboxamide] yielded an IC50 in series [1] of 1 to 12 nM. In addition, the “Human Liver Microsome (μM/min/mg)” value in series [2] is listed as “++ (10-100 μM/min/mg as ++)”.
Turning to `O=C(Nc1ccc(C2COC2)cn1)c1coc(-c2c(-c3ccc(F)cc3)ncn2C2CC(F)(F)C2)n1` [Compound 63, 2-(1-(3,3-difluorocyclobutyl)-4-(4-fluorophenyl)-1H-imidazol-5-yl)-N-(5-(oxetan-3-yl)pyridin-2-yl)oxazole-4-carboxamide], the IC50 in series [1] was above 150 nM. Also, the “Human Liver Microsome (μM/min/mg)” value in series [2] was “+ (>100 μM/min/mg as +)”.
Regarding `CC(C)n1cnc(-c2ccc(F)cc2)c1-c1nc(C(=O)Nc2ccc(N3CC(N(C)C)C3)cn2)cs1` [Compound 64, N-(5-(3-(dimethylamino)azetidin-1-yl)pyridin-2-yl)-2-(4-(4-fluorophenyl)-1-isopropyl-1H-imidazol-5-yl)thiazole-4-carboxamide], the IC50 in series [1] fell in the range of 1 to 12 nM. For the same molecule, the “Human Liver Microsome (μM/min/mg)” value in series [2] is on record as “+ (>100 μM/min/mg as +)”.
For the molecule `O=C(Nc1ccc(N2CCOCC2)cn1)c1csc(-c2c(-c3ccc(F)cc3)ncn2C2CC(F)(F)C2)n1` [Compound 65, 2-(1-(3,3-difluorocyclobutyl)-4-(4-fluorophenyl)-1H-imidazol-5-yl)-N-(5-morpholinopyridin-2-yl)thiazole-4-carboxamide], the IC50 in series [1] fell in the range of 1 to 12 nM. In addition, the “Human Liver Microsome (μM/min/mg)” value in series [2] is recorded as “++ (10-100 μM/min/mg as ++)”.
The like results for `O=C(Nc1ccc(N2CCOCC2)cn1)c1coc(-c2c(-c3ccc(F)cc3)ncn2C2CC(F)(F)C2)n1` [Compound 66, 2-(1-(3,3-difluorocyclobutyl)-4-(4-fluorophenyl)-1H-imidazol-5-yl)-N-(5-morpholinopyridin-2-yl)oxazole-4-carboxamide] were, in that order, 12 to 150 nM and “++ (10-100 μM/min/mg as ++)”.
In the same order, the values of `O=C(Nc1ccc(N2CCC2)cn1)c1csc(-c2c(-c3ccc(F)cc3)ncn2C2CC(F)(F)C2)n1` [Compound 68, N-(5-(azetidin-1-yl)pyridin-2-yl)-2-(1-(3,3-difluorocyclobutyl)-4-(4-fluorophenyl)-1H-imidazol-5-yl)thiazole-4-carboxamide] are 1 to 12 nM and “++ (10-100 μM/min/mg as ++)”.
`O=C(Nc1ccc(N2CCOCC2)cn1)c1csc(-c2c(-c3ccc(F)cc3)ncn2C2COC2)n1` [Compound 70, 2-(4-(4-fluorophenyl)-1-(oxetan-3-yl)-1H-imidazol-5-yl)-N-(5-morpholinopyridin-2-yl)thiazole-4-carboxamide]: the IC50 in series [1] is 1 to 12 nM. Besides, the “Human Liver Microsome (μM/min/mg)” value in series [2] is “++ (10-100 μM/min/mg as ++)”.
The like results for `O=C(Nc1ccc(C2COC2)cn1)c1csc(-c2c(-c3ccc(F)cc3)ncn2C2CC(F)(F)C2)n1` [Compound 74, 2-(1-(3,3-difluorocyclobutyl)-4-(4-fluorophenyl)-1H-imidazol-5-yl)-N-(5-(oxetan-3-yl)pyridin-2-yl)thiazole-4-carboxamide] were, in that order, 1 to 12 nM and “+ (>100 μM/min/mg as +)”.
As for `O=C(Nc1ccc(C2COC2)cc1F)c1coc(-c2c(-c3ccc(F)cc3)ncn2C2CC(F)(F)C2)n1` [Compound 81, 2-(1-(3,3-difluorocyclobutyl)-4-(4-fluorophenyl)-1H-imidazol-5-yl)-N-(2-fluoro-4-(oxetan-3-yl)phenyl)oxazole-4-carboxamide], in series [1], the IC50 lay in the range of 12 to 150 nM. Moreover, the “Human Liver Microsome (μM/min/mg)” value in series [2] is on record as “+ (>100 μM/min/mg as +)”.
In the same order, the values of `CN1C2CC1CN(c1ccc(NC(=O)c3csc(-c4c(-c5ccc(F)cc5)ncn4C4CC(F)(F)C4)n3)nc1)C2` [Compound 83, 2-(1-(3,3-difluorocyclobutyl)-4-(4-fluorophenyl)-1H-imidazol-5-yl)-N-(5-(6-methyl-3,6-diazabicyclo[3.1.1]heptan-3-yl)pyridin-2-yl)thiazole-4-carboxamide] are 1 to 12 nM and “++ (10-100 μM/min/mg as ++)”.
The like results for `CCN1C2CC1CN(c1ccc(NC(=O)c3csc(-c4c(-c5ccc(F)cc5)ncn4C4CC(F)(F)C4)n3)nc1)C2` [Compound 84, 2-(1-(3,3-difluorocyclobutyl)-4-(4-fluorophenyl)-1H-imidazol-5-yl)-N-(5-(6-ethyl-3,6-diazabicyclo[3.1.1]heptan-3-yl)pyridin-2-yl)thiazole-4-carboxamide] were, in that order, 1 to 12 nM and “++ (10-100 μM/min/mg as ++)”.
Regarding `CC(C)n1cnc(-c2ccc(F)cc2)c1-c1nc(C(=O)Nc2ccc(N3CCP(C)(=O)CC3)cn2)cs1` [Compound 85, 2-(4-(4-fluorophenyl)-1-isopropyl-1H-imidazol-5-yl)-N-(5-(4-methyl-4-oxido-1,4-azaphosphinan-1-yl)pyridin-2-yl)thiazole-4-carboxamide], the IC50 in series [1] lay within 1 to 12 nM. Besides, in series [2], the “Human Liver Microsome (μM/min/mg)” value was “++ (10-100 μM/min/mg as ++)”.
Molecule `CN1C2CC1CN(c1ccc(NC(=O)c3csc(-c4c(-c5ccc(F)cc5)ncn4C4CC(F)(F)C4)n3)c(F)c1)C2` [Compound 86, 2-(1-(3,3-difluorocyclobutyl)-4-(4-fluorophenyl)-1H-imidazol-5-yl)-N-(2-fluoro-4-(6-methyl-3,6-diazabicyclo[3.1.1]heptan-3-yl)phenyl)thiazole-4-carboxamide] showed an IC50 in series [1] of 1 to 12 nM. In addition, the “Human Liver Microsome (μM/min/mg)” value in series [2] was “++ (10-100 μM/min/mg as ++)”.
In series [1], `CC(C)c1onc(-c2ccc(F)cc2)c1-c1nc(C(=O)Nc2ccc(C3CN(C)C3)cc2F)cs1` [Compound 88, N-(2-fluoro-4-(1-methylazetidin-3-yl)phenyl)-2-(3-(4-fluorophenyl)-5-isopropylisoxazol-4-yl)thiazole-4-carboxamide] gave an IC50 of 1 to 12 nM. Moreover, the “Human Liver Microsome (μM/min/mg)” value in series [2] was “++ (10-100 μM/min/mg as ++)”.
